This passage reports IC50 results from patent publication US11529341B2, “Bicyclic compounds as inhibitors of PD1/PD-L1 interaction/activation” (JUBILANT PRODEL LLC, priority 2018, dated 2022).

Structures are written as SMILES. Bounds are passed on as bounds.

This test concerns the target T1, PD-1/PD-L1 interaction (Homo sapiens, UniProt Q9NZQ7).
T1 construct: Tag1 (undisclosed kit tag); purchased CisBio 63ADK000CPAPEG
The test can be described thus: PD-1/PD-L1 Homogenous Time-Resolved Fluorescence (HTRF) binding assay (CisBio kit). Conditions: Biochemical PD1/PD-L1 inhibition. The procedure:
PD-L1 Enzyme Assay: Homogenous Time-Resolved Fluorescence (HTRF) Binding Assay
All binding studies were performed using PD-1/PD-L1 Binding Assay Kit from CisBio (Catalog #63ADK000CPAPEG), according to the manufacturer's protocol. The interaction between Tag1-PD-1 and […] was detected by anti-Tag1-Eu^3+ (HTRF donor) and anti-Tag2-XL665 (HTRF acceptor). When the donor and acceptor antibodies were brought to close proximity due to PD-1 and PD-L1 binding, excitation of the donor antibody triggered fluorescent resonance energy transfer (FRET) towards the acceptor antibody, which in turn emitted specifically at 665 nm. This specific signal is positively proportional to PD-1/PD-L1 interaction. The compounds blocking PD-1/PD-L1 interaction will cause a reduction in HTRF signal. The necessary reagents were mixed in the following order: 2 μl compounds (or diluents buffer), 4 μl PD-L1 protein, 4 μl PD-1 protein. After an incubation of 15 minutes, 5 μl of anti-Tag1-Eu^3+ and 5 μl of anti-Tag2-XL665 were added. The plate was sealed and incubated at room temperature for 1 h. The fluorescence emission was read at two different wavelengths (665 nm and 620 nm) on a BMG PheraStar® multi-plate reader. Results were calculated from the 665 nm and 620 nm fluorescence signal and expressed in HTRF ratio=(665 nm/620 nm)×10^4.
For orientation: TR-FRET usually uses a lanthanide donor and a delayed reading to cut background.

T1 sequence (Q9NZQ7 19-238 limits assumed): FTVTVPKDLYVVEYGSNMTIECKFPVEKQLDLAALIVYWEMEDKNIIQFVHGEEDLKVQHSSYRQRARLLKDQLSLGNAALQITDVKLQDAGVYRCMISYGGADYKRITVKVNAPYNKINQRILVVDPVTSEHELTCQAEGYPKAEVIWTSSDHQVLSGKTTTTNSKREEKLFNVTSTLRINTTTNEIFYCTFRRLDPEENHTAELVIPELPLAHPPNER

By IC50 is commonly meant the concentration needed to halve the response being measured. Higher therefore signals weaker potency. `Cc1c(COc2cc(OCc3cccc(C#N)c3)c(CN3CCC[C@@H]4C[C@@]43C(=O)O)c3c2CCC3)cccc1-c1ccccc1` (racemic) [Compound 43, rac-(1R,6S)-2-((5-((3-cyanobenzyl)oxy)-7-((2-methyl-[1,1′-biphenyl]-3-yl)methoxy)-2,3-dihydro-1H-inden-4-yl)methyl)-2-azabicyclo[4.1.0]heptane-1-carboxylic acid] yielded a 50% inhibitory concentration (IC50) of less than 100 nM.
Regarding `COc1cc(OCc2cccc(-c3ccccc3)c2C)c2c(c1CN1CCC[C@H]3C[C@]31C(=O)O)CCC2` (racemic) [Compound 45, (1R,6S)-2-((5-methoxy-7-((2-methyl-[1,1′-biphenyl]-3-yl)methoxy)-2,3-dihydro-1H-inden-4-yl)methyl)-2-azabicyclo[4.1.0]heptane-1-carboxylic acid], the half-maximal inhibitory concentration (IC50) fell in the range of 100 to 500 nM.
`Cc1c(COc2cc(OCc3cncc(C#N)c3)c(CN3CCC[C@@H]4C[C@@]43C(=O)O)c3c2CCC3)cccc1-c1ccccc1` (racemic) [Compound 51, rac-(1R,6S)-2-((5-((5-cyanopyridin-3-yl)methoxy)-7-((2-methyl-[1,1′-biphenyl]-3-yl)methoxy)-2,3-dihydro-1H-inden-4-yl)methyl)-2-azabicyclo[4.1.0]heptane-1-carboxylic acid] came in with an IC50 of less than 100 nM.
`COc1cc(OCc2cccc(-c3ccccc3)c2C#N)c2c(c1CN1CCC[C@@H]3C[C@@]31C(=O)O)CCC2` (racemic) [Compound 62, rac-(1R,6S)-2-((7-((2-cyano-[1,1′-biphenyl]-3-yl)methoxy)-5-methoxy-2,3-dihydro-1H-inden-4-yl)methyl)-2-azabicyclo[4.1.0]heptane-1-carboxylic acid] gave a 50% inhibitory concentration (IC50) of less than 100 nM.
As for `N#Cc1cncc(COc2cc(OCc3cccc(-c4ccccc4)c3C#N)c3c(c2CN2CCC[C@@H]4C[C@@]42C(=O)O)CCC3)c1` (racemic) [Compound 72, rac-(1R,6S)-2-((7-((2-cyano-[1,1′-biphenyl]-3-yl)methoxy)-5-((5-cyanopyridin-3-yl)methoxy)-2,3-dihydro-1H-inden-4-yl)methyl)-2-azabicyclo[4.1.0]heptane-1-carboxylic acid], the figure is less than 100 nM.
The compound `Cc1c(COc2ccc(CN3CCCC[C@H]3C(=O)O)c3c2CCC3)cccc1-c1ccccc1` [Compound 1, (S)-1-((7-((2-methyl-[1,1′-biphenyl]-3-yl)methoxy)-2,3-dihydro-1H-inden-4-yl)methyl) piperidine-2-carboxylic acid] registered an IC50 of 100 to 500 nM.
The figure for `COc1cc(OCc2cccc(-c3ccccc3)c2C)c2c(c1CNCCNC(C)=O)CCC2` [Compound 2, N-(2-(((5-methoxy-7-((2-methyl-[1,1′-biphenyl]-3-yl)methoxy)-2,3-dihydro-1H-inden-4-yl)methyl)amino)ethyl)acetamide] is 100 to 500 nM.
As for `Cc1c(COc2ccc(CN3CCCC[C@H]3C(=O)O)c3c2CCC3)cccc1-c1cccc2c1ccn2CCCN1CCC(F)(F)C1` [Compound 3, (S)-1-((7-((3-(1-(3-(3,3-difluoropyrrolidin-1-yl)propyl)-1H-indol-4-yl)-2-methylbenzyl)oxy)-2,3-dihydro-1H-inden-4-yl)methyl)piperidine-2-carboxylic acid], the figure is greater than 500 nM; as for `Cc1cc(CN2CCCC[C@H]2C(=O)O)c2c(c1OCc1cccc(-c3ccccc3)c1C)CCC2` [Compound 4, (S)-1-((6-methyl-7-((2-methyl-[1,1′-biphenyl]-3-yl)methoxy)-2,3-dihydro-1H-inden-4-yl)methyl)piperidine-2-carboxylic acid], 100 to 500 nM.
Turning to `Cc1c(COc2c(Cl)cc(CN3CCCC[C@H]3C(=O)O)c3c2CCC3)cccc1-c1ccccc1` [Compound 5, (S)-1-((6-chloro-7-((2-methyl-[1,1′-biphenyl]-3-yl)methoxy)-2,3-dihydro-1H-inden-4-yl)methyl)piperidine-2-carboxylic acid], the IC50 lay in the range of 100 to 500 nM.
As for `COC(=O)c1cc(CNCCNC(C)=O)c2c(c1OCc1cccc(-c3ccccc3)c1C)CCC2` [Compound 6, Methyl 7-(((2-acetamidoethyl)amino)methyl)-4-((2-methyl-[1,1′-biphenyl]-3-yl)methoxy)-2,3-dihydro-1H-indene-5-carboxylate], the figure is greater than 500 nM; as for `COc1cc(OCc2cccc(-c3cccc(OCCCN4CCC(F)(F)C4)c3C)c2C)c2c(c1CN1CCCC[C@H]1C(=O)O)CCC2` [Compound 7, (S)-1-((7-((3′-(3-(3,3-difluoropyrrolidin-1-yl)propoxy)-2,2′-dimethyl-[1,1′-biphenyl]-3-yl)methoxy)-5-methoxy-2,3-dihydro-1H-inden-4-yl)methyl)piperidine-2-carboxylic acid], greater than 500 nM.
On to `Cc1c(COc2cc(OCc3cccc(C#N)c3)c(CN3CCCC[C@H]3C(=O)O)c3c2CCC3)cccc1-c1ccccc1` [Compound 8, (S)-1-((5-((3-cyanobenzyl)oxy)-7-((2-methyl-[1,1′-biphenyl]-3-yl)methoxy)-2,3-dihydro-1H-inden-4-yl)methyl)piperidine-2-carboxylic acid], for which the IC50 was less than 100 nM.
The figure for `Cc1c(COc2cc(OCc3cncc(F)c3)c(CN3CCCC[C@H]3C(=O)O)c3c2CCC3)cccc1-c1ccccc1` [Compound 9, (S)-1-((5-((5-fluoropyridin-3-yl)methoxy)-7-((2-methyl-[1,1′-biphenyl]-3-yl)methoxy)-2,3-dihydro-1H-inden-4-yl)methyl)piperidine-2-carboxylic acid] is less than 100 nM; for `CC(=O)NCCNCc1c(OCc2cncc(F)c2)cc(OCc2cccc(-c3ccccc3)c2C)c2c1CCC2` [Compound 10, N-(2-(((5-((5-fluoropyridin-3-yl)methoxy)-7-((2-methyl-[1,1′-biphenyl]-3-yl)methoxy)-2,3-dihydro-1H-inden-4-yl)methyl)amino)ethyl)acetamide] it is less than 100 nM.
Compound `COc1cc(OCc2cccc(-c3ccccc3)c2C)c2c(c1CN1CC3(CC3)C[C@H]1C(=O)O)CCC2` [Compound 11, (S)-5-((5-methoxy-7-((2-methyl-[1,1′-biphenyl]-3-yl)methoxy)-2,3-dihydro-1H-inden-4-yl)methyl)-5-azaspiro[2.4]heptane-6-carboxylic acid] gave an IC50 of less than 100 nM.
Compound `Cc1c(COc2cc(OCC(F)(F)F)c(CN3CCCC[C@H]3C(=O)O)c3c2CCC3)cccc1-c1ccccc1` [Compound 12, (S)-1-((7-((2-methyl-[1,1′-biphenyl]-3-yl)methoxy)-5-(2,2,2-trifluoroethoxy)-2,3-dihydro-1H-inden-4-yl)methyl)piperidine-2-carboxylic acid] returned a concentration for half-maximal inhibition (IC50) of less than 100 nM.
As for `CC(=O)N(C)CCNCc1c(OCc2cccc(C#N)c2)cc(OCc2cccc(-c3ccccc3)c2C)c2c1CCC2` [Compound 13, N-(2-(((5-((3-cyanobenzyl)oxy)-7-((2-methyl-[1,1′-biphenyl]-3-yl)methoxy)-2,3-dihydro-1H-inden-4-yl)methyl)amino)ethyl)-N-methylacetamide], the figure is less than 100 nM; as for `CC(=O)NCCNCc1c(OC(C)c2cccc(C#N)c2)cc(OCc2cccc(-c3ccccc3)c2C)c2c1CCC2` (stereo not shown) [Compound 14, N-(2-(((5-(1-(3-cyanophenyl)ethoxy)-7-((2-methyl-[1,1′-biphenyl]-3-yl)methoxy)-2,3-dihydro-1H-inden-4-yl)methyl)amino)ethyl)acetamide], greater than 500 nM.
In the case of `CC(=O)NC1CCCN(Cc2c(OCc3cccc(C#N)c3)cc(OCc3cccc(-c4ccccc4)c3C)c3c2CCC3)C1` (stereo not shown) [Compound 15, N-(1-((5-((3-cyanobenzyl)oxy)-7-((2-methyl-[1,1′-biphenyl]-3-yl)methoxy)-2,3-dihydro-1H-inden-4-yl)methyl)piperidin-3-yl)acetamide], the IC50 is less than 100 nM.
As for `CC(=O)NCCNCc1ccc(OCc2cccc(-c3ccccc3)c2C)c2c1CCC2` [Compound 16, N-(2-(((7-((2-methyl-[1,1′-biphenyl]-3-yl)methoxy)-2,3-dihydro-1H-inden-4-yl)methyl)amino)ethyl)acetamide], the figure is greater than 500 nM; as for `Cc1c(COc2ccc(CN3CC4(COC4)C3)c3c2CCC3)cccc1-c1ccccc1` [Compound 17, 6-((7-((2-methyl-[1,1′-biphenyl]-3-yl)methoxy)-2,3-dihydro-1H-inden-4-yl)methyl)-2-oxa-6-azaspiro[3.3]heptane], greater than 500 nM; as for `Cc1c(COc2ccc(CNC(CO)(CO)CO)c3c2CCC3)cccc1-c1ccccc1` [Compound 18, 2-(hydroxymethyl)-2-(((7-((2-methyl-[1,1′-biphenyl]-3-yl)methoxy)-2,3-dihydro-1H-inden-4-yl)methyl)amino)propane-1,3-diol], 100 to 500 nM.
As for `Cc1c(COc2ccc(CNC3(C(=O)O)CC3)c3c2CCC3)cccc1-c1ccccc1` [Compound 19, 1-(((7-((2-methyl-[1,1′-biphenyl]-3-yl)methoxy)-2,3-dihydro-1H-inden-4-yl)methyl)amino)cyclopropane-1-carboxylic acid], the figure is 100 to 500 nM; as for `Cc1c(COc2ccc(CNCC(=O)O)c3c2CCC3)cccc1-c1ccccc1` [Compound 20, ((7-((2-methyl-[1,1′-biphenyl]-3-yl)methoxy)-2,3-dihydro-1H-inden-4-yl)methyl)glycine], 100 to 500 nM.
